Experimental data taken from patent US20170275269A1, “BENZYL SUBSTITUTED INDAZOLES AS BUB1 KINASE INHIBITORS” (Bayer Pharma Aktiengesellschaft, priority 2014, published 2017).
Read-outs that look alike come from different tables or passages of the source.

What was measured:
[1] = biological target: T1, catalytic domain of human Bub1 (amino acids 704-1085) (Homo sapiens, UniProt O43683); test: Bub1 kinase assay (TR-FRET); format: biochemical
T1 construct: catalytic domain of human Bub1 (amino acids 704-1085); His6 (N); made in house; host or cells: Hi5 insect cells
Description: To this end, 100-fold concentrated compound solutions (in DMSO) were previously prepared by serial dilution (1:3.4) of 2 mM stocks in a clear low volume 384-well source microtiter plate (Greiner Bio-One, Frickenhausen, Germany), from which 50 nL of compounds were transferred into a black low volume test microtiter plate from the same supplier. […] The resulting mixture (5 μL final volume) was incubated at 22° C. during 60 min., and the reaction was stopped by the addition of 5 μL of an aqueous EDTA-solution (50 mM EDTA, in 100 mM HEPES pH 7.5 and 0.2% (w/v) bovine serum albumin) which also contained the TR-FRET detection reagents (0.2 μM streptavidin-XL665 [Cisbio Bioassays, Codolet, France] and 1 nM anti-phosho-Serine antibody [Merck Millipore, cat. #35-001] and 0.4 nM LANCE EU-W1024 labeled anti-mouse IgG antibody [Perkin-Elmer, product no. AD0077, alternatively a Terbium-cryptate-labeled anti-mouse IgG antibody from Cisbio Bioassays can be used]). The stopped reaction mixture was further incubated 1 h at 22° C. in order to allow the formation of complexes between peptides and detection reagents. Subsequently, the amount of product was evaluated by measurement of the resonance energy transfer from the Eu-chelate-antibody complex recognizing the Phosphoserine residue to the streptavidin-XL665 bound to the biotin moiety of the peptide. […] IC50 values were calculated by fitting the normalized inhibition data to a 4-parameter logistic equation (Minimum, Maximum, IC50, Hill; Y=Max+(Min−Max)/(1+(X/IC50)Hill)).

[2] = tested on: HeLa human cervical tumor cells; test: Proliferation Assay (HeLa+Paclitaxel); conditions: read-out: Biological Assay 3.0: Proliferation Assay (HeLa + Paclitaxel):, 3 nM paclitaxel, 92 hours with test substance
Description: Proliferation Assay (HeLa+Paclitaxel):
Cultivated HeLa human cervical tumor cells (DSMZ ACC-57) were plated at a density of 3000 cells/well in a 96-well multititer plate in 200 μL of growth medium supplemented 10% fetal calf serum. After 24 hours, the cells of one plate (zero-point plate) were stained with crystal violet (see below). The medium of the other plates was supplemented with 3 nM of paclitaxel (Sigma-Aldrich) and the cells were incubated at 37° C. After 4 hours the test substances were added in various concentrations (0 μM, as well as in the range of 0.001-10 μM; the final concentration of the solvent dimethyl sulfoxide was adjusted to 0.1%) using a Hewlett-Packard HP D300 Digital Dispenser. The cells were incubated for another 92 hours at 37° C. in the presence of test substances. Cell proliferation was determined by staining the cells with crystal violet: the cells were fixed by adding 20 μL/measuring point of an 11% glutaric aldehyde solution for 15 minutes at room temperature. After three washing cycles of the fixed cells with water, the plates were dried at room temperature. The cells were stained by adding 100 μL/measuring point of a 0.1% crystal violet solution (pH 3.0). After three washing cycles of the stained cells with water, the plates were dried at room temperature. The dye was dissolved by adding 100 μL/measuring point of a 10% acetic acid solution. Absorption was determined by photometry at a wavelength of 595 nm. The change of cell number, in percent, was calculated by normalization of the measured values to the absorption values of the zero-point plate (=0%) and the absorption of the untreated (0 μm) cells (=100%). The IC50 values were determined by means of a 4 parameter fit.

[3] = tested on: HeLa human cervical cancer cell line; test: Proliferation assay (HeLa cell line)
Description: Cultivated tumor cells (cells were ordered from ATCC) were plated at a density of 3000 cells/well in a 96-well multititer plate in 200 μL of growth medium supplemented 10% fetal calf serum. After 24 hours, the cells of one plate (zero-point plate) were stained with crystal violet (see below), while the medium of the other plates was replaced by fresh culture medium (200 μL), to which the test substances were added in various concentrations (0 μM, as well as in the range of 0.001-10 μM; the final concentration of the solvent dimethyl sulfoxide was 0.5%). The cells were incubated for 4 days in the presence of test substances. Cell proliferation was determined by staining the cells with crystal violet: the cells were fixed by adding 20 μL/measuring point of an 11% glutaric aldehyde solution for 15 minutes at room temperature. After three washing cycles of the fixed cells with water, the plates were dried at room temperature. The cells were stained by adding 100 μL/measuring point of a 0.1% crystal violet solution (pH 3.0). After three washing cycles of the stained cells with water, the plates were dried at room temperature. The dye was dissolved by adding 100 μL/measuring point of a 10% acetic acid solution. Absorption was determined by photometry at a wavelength of 595 nm. The change of cell number, in percent, was calculated by normalization of the measured values to the absorption values of the zero-point plate (=0%) and the absorption of the untreated (0 μm) cells (=100%). The IC50 values were determined by means of a 4 parameter fit.

[4] = 10 μM ATP, 1 μM peptide substrate, read-out: Biological Assay 1: Bub1 kinase assay median IC50
[5] = Homo sapiens, 96 h, read-out: Biological Assay 2: Proliferation assay (HeLa cell line) median IC50
[6] = Homo sapiens, 96 h, read-out: Biological Assay 2: Proliferation assay (HeLa cell line) median IC50, HeLa, 4 days incubation, crystal violet

T1 sequence (O43683 704-1085): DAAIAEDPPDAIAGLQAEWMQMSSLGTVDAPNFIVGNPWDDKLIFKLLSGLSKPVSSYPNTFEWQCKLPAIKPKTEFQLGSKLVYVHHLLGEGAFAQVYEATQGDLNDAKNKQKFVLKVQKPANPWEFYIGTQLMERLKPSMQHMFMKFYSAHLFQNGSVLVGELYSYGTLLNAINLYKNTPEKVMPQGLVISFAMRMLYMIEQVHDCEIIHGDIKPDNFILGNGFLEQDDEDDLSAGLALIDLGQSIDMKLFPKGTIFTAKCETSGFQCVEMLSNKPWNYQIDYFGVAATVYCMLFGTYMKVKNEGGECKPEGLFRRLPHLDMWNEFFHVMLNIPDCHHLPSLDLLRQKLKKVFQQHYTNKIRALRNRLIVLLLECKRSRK

SMILES	IC50 [1, 4]	IC50 [2]	IC50 [3, 5]	IC50 [1]	IC50 [3, 6]	IC50 ([3]; read-out: Biological Assay 2: Proliferation assay (HeLa cell line) median IC50, 4 days incubation, crystal violet)
CN1CCN(CCCOc2cnc(-c3nn(Cc4c(F)cc(OCC5CC5)cc4F)c4ccccc34)nc2Nc2ccncc2Cl)CC1 [Example 2-1-1, N-(3-chloropyridin-4-yl)-2-{1-[4-(cyclopropylmethoxy)-2,6-difluorobenzyl]-1H-indazol-3-yl}-5-[3-(4-methylpiperazin-1-yl)propoxy]pyrimidin-4-amine]	10 nM	69 nM	1100 nM	–	–	–
Fc1cc(OCC2CC2)cc(F)c1Cn1nc(-c2ncc(OCCCN3CCOCC3)c(Nc3ccncc3Cl)n2)c2ccccc21 [Example 2-1-2, N-(3-chloropyridin-4-yl)-2-{1-[4-(cyclopropylmethoxy)-2,6-difluorobenzyl]-1H-indazol-3-yl}-5-[3-(morpholin-4-yl)propoxy]pyrimidin-4-amine]	50 nM	760 nM	5800 nM	–	–	–
CCOc1cc(F)c(Cn2nc(-c3ncc(OCCCN4CCOCC4)c(Nc4ccnc(NC(C)=O)c4)n3)c3ccccc32)c(F)c1 [Example 2-1-3, N-[4-({2-[1-(4-ethoxy-2,6-difluorobenzyl)-1H-indazol-3-yl]-5-[3-(morpholin-4-yl)-propoxy]pyrimidin-4-yl}amino)pyridin-2-yl]acetamide]	6.8 nM	78 nM	3400 nM	–	–	–
CCOc1cc(F)c(Cn2nc(-c3ncc(OCCCN4CCN(C)CC4)c(Nc4ccnc(NC(C)=O)c4)n3)c3ccccc32)c(F)c1 [Example 2-1-4, N-[4-({2-[1-(4-ethoxy-2,6-difluorobenzyl)-1H-indazol-3-yl]-5-[3-(4-methylpiperazin-1-yl)propoxy]pyrimidin-4-yl}amino)pyridin-2-yl]acetamide]	4.6 nM	160 nM	2000 nM	–	–	–
CCOc1cc(F)c(Cn2nc(-c3ncc(OCCCN4CCN(CC(F)(F)F)CC4)c(Nc4ccnc(NC(C)=O)c4)n3)c3ccccc32)c(F)c1 [Example 2-1-5, N-{4-[(2-[1-(4-ethoxy-2,6-difluorobenzyl)-1H-indazol-3-yl]-5-{3-[4-(2,2,2-tri-fluoroethyl)piperazin-1-yl]propoxy}pyrimidin-4-yl)amino]pyridin-2-yl}acetamide]	–	440 nM	–	23 nM	> 10000 nM	–
CCOc1cc(F)c(Cn2nc(-c3ncc(OCCCN4CCN(C)CC4)c(Nc4ccncn4)n3)c3ccccc32)c(F)c1 [Example 2-1-6, 2-[1-(4-ethoxy-2,6-difluorobenzyl)-1H-indazol-3-yl]-5-[3-(4-methylpiperazin-1-yl)propoxy]-N-(pyrimidin-4-yl)pyrimidin-4-amine]	9.6 nM	860 nM	1100 nM	–	–	–
CCOc1cc(F)c(Cn2nc(-c3ncc(OCCCN4CCN(C)CC4)c(Nc4ccnc(C)n4)n3)c3ccccc32)c(F)c1 [Example 2-1-7, 2-[1-(4-ethoxy-2,6-difluorobenzyl)-1H-indazol-3-yl]-5-[3-(4-methylpiperazin-1-yl)propoxy]-N-(2-methylpyrimidin-4-yl)pyrimidin-4-amine]	12 nM	430 nM	3700 nM	–	–	–
CCOc1cc(F)c(Cn2nc(-c3ncc(OCCCN4CCN(C)CC4)c(Nc4ccnc(C)c4)n3)c3ccccc32)c(F)c1 [Example 2-1-8, 2-[1-(4-ethoxy-2,6-difluorobenzyl)-1H-indazol-3-yl]-5-[3-(4-methylpiperazin-1-yl)propoxy]-N-(2-methylpyridin-4-yl)pyrimidin-4-amine]	28 nM	370 nM	1200 nM	–	–	–
Fc1cc(OCC(F)F)cc(F)c1Cn1nc(-c2ncc(OCCCN3CCOCC3)c(Nc3ccncn3)n2)c2ccccc21 [Example 2-1-9, 2-{1-[4-(2,2-difluoroethoxy)-2,6-difluorobenzyl]-1H-indazol-3-yl}-5-[3-(morpholin-4-yl)propoxy]-N-(pyrimidin-4-yl)pyrimidin-4-amine]	19 nM	490 nM	3700 nM	–	–	–
CCOc1cc(F)c(Cn2nc(-c3ncc(OCCCN4CCN(C)CC4)c(Nc4cc(C)ncc4C)n3)c3ccccc32)c(F)c1 [Example 2-1-10, N-(2,5-dimethylpyridin-4-yl)-2-[1-(4-ethoxy-2,6-difluorobenzyl)-1H-indazol-3-yl]-5-[3-(4-methylpiperazin-1-yl)propoxy]pyrimidin-4-amine]	250 nM	160 nM	550 nM	–	–	–
Cc1cc(Nc2nc(-c3nn(Cc4c(F)cc(OCC5CC5)cc4F)c4ccccc34)ncc2OCCCN2CCOCC2)ccn1 [Example 2-1-11, 2-{1-[4-(cyclopropylmethoxy)-2,6-difluorobenzyl]-1H-indazol-3-yl}-N-(2-methylpyridin-4-yl)-5-[3-(morpholin-4-yl)propoxy]pyrimidin-4-amine]	370 nM	–	–	–	–	–
CCOc1cc(F)c(Cn2nc(-c3ncc(OCCCCN4CC(F)(F)C4)c(Nc4ccncc4Cl)n3)c3ccccc32)c(F)c1 [Example 2-2-1, N-(3-chloropyridin-4-yl)-5-[4-(3,3-difluoroazetidin-1-yl)butoxy]-2-[1-(4-ethoxy-2,6-difluorobenzyl)-1H-indazol-3-yl]pyrimidin-4-amine]	–	140 nM	–	19 nM	9000 nM	–
CCOc1cc(F)c(Cn2nc(-c3ncc(OCCCCN4CC(F)C4)c(Nc4cc(C)ncc4C)n3)c3ccccc32)c(F)c1 [Example 2-3-1, N-(2,5-dimethylpyridin-4-yl)-2-[1-(4-ethoxy-2,6-difluorobenzyl)-1H-indazol-3-yl]-5-[4-(3-fluoroazetidin-1-yl)butoxy]pyrimidin-4-amine]	–	33 nM	–	39 nM	1400 nM	–
CCOc1cc(F)c(Cn2nc(-c3ncc(OCCCCN4CC(F)(F)C4)c(Nc4ccnc(C)n4)n3)c3ccccc32)c(F)c1 [Example 2-3-2, 5-[4-(3,3-difluoroazetidin-1-yl)butoxy]-2-[1-(4-ethoxy-2,6-difluorobenzyl)-1H-indazol-3-yl]-N-(2-methylpyrimidin-4-yl)pyrimidin-4-amine]	–	26 nM	–	34 nM	9300 nM	–
CCOc1cc(F)c(Cn2nc(-c3ncc(OCCCCN4CC(F)C4)c(Nc4ccnc(C)n4)n3)c3ccccc32)c(F)c1 [Example 2-3-3, 2-[1-(4-ethoxy-2,6-difluorobenzyl)-1H-indazol-3-yl]-5-[4-(3-fluoroazetidin-1-yl)butoxy]-N-(2-methylpyrimidin-4-yl)pyrimidin-4-amine]	–	23 nM	–	12 nM	3700 nM	–
CCOc1cc(F)c(Cn2nc(-c3ncc(OCCCCN4CCC(F)(F)CC4)c(Nc4ccnc(C)n4)n3)c3ccccc32)c(F)c1 [Example 2-3-4, 5-[4-(4,4-difluoropiperidin-1-yl)butoxy]-2-[1-(4-ethoxy-2,6-difluorobenzyl)-1H-indazol-3-yl]-N-(2-methylpyrimidin-4-yl)pyrimidin-4-amine]	–	51 nM	–	49 nM	> 10000 nM	–
CCOc1cc(F)c(Cn2nc(-c3ncc(OCCCCN4CCC(F)(F)CC4)c(Nc4cc(C)ncc4C)n3)c3ccccc32)c(F)c1 [Example 2-3-5, 5-[4-(4,4-difluoropiperidin-1-yl)butoxy]-N-(2,5-dimethylpyridin-4-yl)-2-[1-(4-ethoxy-2,6-difluorobenzyl)-1H-indazol-3-yl]pyrimidin-4-amine]	–	31 nM	–	230 nM	6800 nM	–
CCOc1cc(F)c(Cn2nc(-c3ncc(OC[C@H](C)NCC(F)(F)F)c(Nc4ccnc(C)n4)n3)c3ccccc32)c(F)c1 [Example 2-4-1, 2-[1-(4-ethoxy-2,6-difluorobenzyl)-1H-indazol-3-yl]-N-(2-methylpyrimidin-4-yl)-5-({(2S)-2-[(2,2,2-trifluoroethyl)amino]propyl}oxy)pyrimidin-4-amine]	–	140 nM	–	11 nM	880 nM	–
CCOc1cc(F)c(Cn2nc(-c3ncc(OCCN4CCOCC4)c(Nc4ccncc4)n3)c3ccccc32)c(F)c1 [Example 3-1-1, 2-[1-(4-ethoxy-2,6-difluorobenzyl)-1H-indazol-3-yl]-5-[2-(morpholin-4-yl)ethoxy]-N-(pyridin-4-yl)pyrimidin-4-amine, reference compound]	–	260 nM	–	–	9000 nM	> 10000 nM
